Measured values from patent US7084155B2, “Chemokine receptor binding heterocyclic compounds” (AnorMED, priority 2000, dated 2006).

How the values were obtained:
Type in all cases: cell-based
HIV-1 NL4.3 or IIIB = assay: Inhibition of HIV-1 (NL4.3 or IIIB, CXCR4 using) replication in MT-4 cells, MTT viability; conditions: Human immunodeficiency virus 1, IIIB, MT4, concentration protecting 50% of virus-infected cells against viral cytopathicity
Procedure: Assay for Inhibition of HIV-1 (NL4.3) Replication in MT-4 Cells Inhibition of HIV-1 NL4.3 (or IIIB, CXCR4 using) replication assays were performed as previously described (Bridger et al. J. Med. Chem. 1999, 42, 3971-3981; De […] et al. Proc. Natl. Acad. Sci, 1992, 89, 5286-5290; De […] et al. Antimicrob. Agents Chemother. 1994, 38, 668-674; Bridger et al. J. Med. Chem. 1995, 38, 366-378; Schols et al. J. Exp. Med., 1997, 186, 1383-1388). Anti-HIV activity and cytotoxicity measurements were carried out in parallel. They were based on the viability of MT-4 cells that had been infected with HIV in the presence of various concentrations of the test compounds. After the MT-4 cells were allowed to proliferate for 5 days, the number of viable cells was quantified by a tetrazolium-based colorimetric 3-(4,5-dimethylthiazol-2-yl)-2,5-diphenyltetrazolium bromide (MTT) procedure in 96-well microtrays. In all of these assays, viral input (viral multiplicity of infection, MOI) was 0.01, or 100 times the 50% cell culture infective dose (CCID50). The EC50 was defined as the concentration required to protect 50% of the virus-infected cells against viral cytopathicity.

[1] = test system: SDF-1 induced Ca flux in SUP-T1 cells; assay: Inhibition of chemokine (SDF-1) induced Ca flux measured on a FLIPR; conditions: Homo sapiens
Procedure: Inhibition of Chemokine Induced Ca Flux Measured on a FLIPR (Molecular Devices) Loading dye: Fluo-3, AM (Molecular Probes F-1241) is dissolved in anhydrous DMSO and stored frozen in aliquots. To increase the solubility of the dye in the loading medium, 10% (w/v) pluronic acid (Molecular Probes F-127) is added to the Fluo-3 stock solution immediately before use. HBSS+20 mM Hepes buffer+0.2% BSA, pH 7.4. HBSS 10× [(w/o phenol red and sodium bicarbonate (Gibco 14 065–049)]; Hepes buffer 1M (Gibco 15 630–056), BSA (Sigma A3675). The flux buffer is vacuum-filtered and stored refrigerated for a maximum of 5 days. Before use in the experiment, the buffer is warmed at 37° C. in a waterbath. The test compounds were diluted in flux buffer to the desired concentration and added to 4 wells of a black microplate (4 parallel measurements per compound). The following control wells were used: 100% response control (no inhibition), flux buffer was added; 100% inhibition control: chemokine was added at 5-times the concentration required to induce a Ca flux. The chemokines are diluted in flux buffer to concentrations that are 4-fold higher than the desired concentrations required for stimulation of the cells (i.e. 2.5 nM for SDF-1[…] and 0.6 nM for RANTES). The chemokines were added to untreated 96-well Sero well compound plates (International Medical, Sterilin code 611F96). In the negative control well's (baseline monitoring), flux buffer is added instead of chemokine. As a positive control to check for dye loading efficiency, 20 μM digitonin (final concentration) was also included. The agonist plate was incubated in the FLIPR (37° C.) for 15–30 min. Cell Loading Protocol for Measuring Inhibition of SDF-1[…] Induced Ca Flux in SUP-T1 Cells. SUP-T1 cells were centrifuged at room temperature (RT) and re-suspended in loading medium (RPMI-1640 containing 2% FBS and 4 μM Fluo-3, AM). The cells were incubate at room temperature for 45 min. then washed twice in flux buffer then incubated in flux buffer at room temperature for 10 min. The cells were centrifuged and re-suspended in flux buffer at a density of 3×10^6 cells per mL. A 100 uL aliquot of the cell suspension (3×10^5 cells) was added to each well of a black microplate (Costar 3603), which already contains 50 uL of a solution of the test compound (at concentrations that are 3-fold higher than the desired final compound concentrations). The microplate is then gently centrifuged at room temperature. Homogeneous spreading of the cells on the bottom of the microplate wells was then confirmed with a microscope and the microplate was incubated in the FLIPR (37° C.) for 10 min. prior to testing. Fluorescence Measurements as a Function of Time on the FLIPR The FLIPR settings (camera exposure time and laser power) are adjusted to obtain initial fluorescence values between 8,000 and 10,000 units. After monitoring a 20 second-baseline, the agonist (chemokine) (50 uL) is added by automatic pipettor with black pipette tips. Fluorescence is measured simultaneously in all wells of the microplate every 2 seconds (first 2 min) and thereafter every 6 seconds (additional 2 min). The average ca-flux measured in each set of 4 identical wells (one test compound) was calculated by the FLIPR software.

HIV-1 BaL = assay: Inhibition of HIV-1 BaL (CCR5 using) replication in PHA-stimulated PBMC's, viral p24 antigen expression; conditions: Human immunodeficiency virus 1, BAL

| Structure (SMILES) | EC50 (HIV-1 NL4.3 or IIIB) | EC50 (HIV-1 BaL) | inhibition at 20 µg/mL [1] |
| --- | --- | --- | --- |
| CCCCc1ccc(CNCc2ccc(CN(Cc3nc4ccccc4[nH]3)C3CCCc4cccnc43)cc2)nc1 (stereo not drawn) [Example 54, N-(5-butyl-2-pyridinylmethyl)-N′-(1H-benzimidazol-2-ylmethyl)-N′-(5,6,7,8-tetrahydro-8-quinolinyl)-1,4-benzenedimethanamine] | < 20 µg/mL | < 20 µg/mL | > 20% |
| Oc1cccnc1CNCc1ccc(CN(Cc2nc3ccccc3[nH]2)C2CCCc3cccnc32)cc1 (stereo not drawn) [Example 55, N-(3-hydroxy-2-pyridinylmethyl)-N′-(1H-benzimidazol-2-ylmethyl)-N′-(5,6,7,8-tetrahydro-8-quinolinyl)-1,4-benzenedimethanamine] | < 20 µg/mL | < 20 µg/mL | > 20% |
| Cc1cc(C)nc(CNCc2ccc(CN(Cc3nc4ccccc4[nH]3)C3CCCc4cccnc43)cc2)c1 (stereo not drawn) [Example 61, N-(4,6-dimethyl-2-pyridinylmethyl)-N′-(1H-benzimidazol-2-ylmethyl)-N′-(5,6,7,8-tetrahydro-8-quinolinyl)-1,4-benzenedimethanamine] | < 20 µg/mL | < 20 µg/mL | > 20% |
| CC(NCc1ccc(CN(Cc2nc3ccccc3[nH]2)C2CCCc3cccnc32)cc1)c1ccccn1 (stereo not drawn) [Example 66, N-[1-(2-pyridinyl)eth-1-yl]-N′-(1H-benzimidazol-2-ylmethyl)-N′-(5,6,7,8-tetrahydro-8-quinolinyl)-1,4-benzenedimethanamine] | < 20 µg/mL | < 20 µg/mL | > 20% |
| COc1cc(CNCc2ccc(CN(Cc3nc4ccccc4[nH]3)C3CCCc4cccnc43)cc2)nc2ccccc12 (stereo not drawn) [Example 64, N-(4-methoxy-2-quinolinylmethyl)-N′-(1H-benzimidazol-2-ylmethyl)-N′-(5,6,7,8-tetrahydro-8-quinolinyl)-1,4-benzenedimethanamine] | < 20 µg/mL | < 20 µg/mL | > 20% |
| c1ccc(-c2cccc3nc(CN(Cc4ccc(CNCc5ccccn5)cc4)C4CCCc5cccnc54)[nH]c23)cc1 (stereo not drawn) [Example 14, N-(2-pyridinylmethyl)-N′-[4-phenyl-1H-benzimidazol-2-ylmethyl]-N′-(5,6,7,8-tetrahydro-8-quinolinyl)-1,4-benzenedimethanamine] | < 20 µg/mL | < 20 µg/mL | > 20% |
| Oc1ccccc1CNCc1ccc(CN(Cc2nc3ccccc3[nH]2)C2CCCc3cccnc32)cc1 (stereo not drawn) [Example 68, N-(2-hydroxyphenylmethyl)-N′-(1H-benzimidazol-2-ylmethyl)-N′-(5,6,7,8-tetrahydro-8-quinolinyl)-1,4-benzenedimethanamine] | < 20 µg/mL | < 20 µg/mL | > 20% |
| Cc1cc(CNCc2ccc(CN(Cc3nc4ccccc4[nH]3)C3CCCc4cccnc43)cc2)cc(C)n1 (stereo not drawn) [Example 62, N-(2,6-dimethyl-4-pyridinylmethyl)-N′-(1H-benzimidazol-2-ylmethyl)-N′-(5,6,7,8-tetrahydro-8-quinolinyl)-1,4-benzenedimethanamine] | < 20 µg/mL | < 20 µg/mL | > 20% |

Further lines, with some results ahead:

| EC50 (HIV-1 NL4.3 or IIIB) | EC50 (HIV-1 BaL) | Structure (SMILES) | inhibition at 20 µg/mL [1] |
| --- | --- | --- | --- |
| < 20 µg/mL | < 20 µg/mL | Cc1nc(CN(Cc2ccc(CNCc3ccccn3)cc2)C2CCCc3cccnc32)[nH]c1-c1ccccc1 (stereo not drawn) [Example 28, N-(2-Pyridinylmethyl)-N′-(4-methyl-5-phenyl-1H-imidazol-2-ylmethyl)-N′-(5,6,7,8-tetrahydro-8-quinolinyl)-1,4-benzenedimethanamine] | > 20% |
| < 20 µg/mL | < 20 µg/mL | COc1cccc2[nH]c(CN(Cc3ccc(CNCc4ccccn4)cc3)C3CCCc4cccnc43)nc12 (stereo not drawn) [Example 13, N-(2-pyridinylmethyl)-N′-[4-methoxy-1H-benzimidazol-2-ylmethyl]-N′-(5,6,7,8-tetrahydro-8-quinolinyl)-1,4-benzenedimethanamine] | > 20% |
| < 20 µg/mL | < 20 µg/mL | COc1cccc(-c2cnc(CN(Cc3ccc(CNCc4ccccn4)cc3)C3CCCc4cccnc43)[nH]2)c1 (stereo not drawn) [Example 30, N-(2-Pyridinylmethyl)-N′-[5-(3-methoxyphenyl)-1H-imidazol-2-ylmethyl]-N′-(5,6,7,8-tetrahydro-8-quinolinyl)-1,4-benzenedimethanamine] | > 20% |
| < 20 µg/mL | < 20 µg/mL | FC(F)(F)c1c[nH]c(CN(Cc2ccc(CNCc3ccccn3)cc2)C2CCCc3cccnc32)n1 (stereo not drawn) [Example 35, N-(2-pyridinylmethyl)-N′-(4-trifluormethyl-1H-imidazol-2-ylmethyl)-N′-(5,6,7,8-tetrahydro-8-quinolinyl)-1,4-benzenedimethanamine] | > 20% |
| < 20 µg/mL | < 20 µg/mL | c1ccc(-c2cnc(CN(Cc3ccc(CNCc4ccccn4)cc3)C3CCCc4cccnc43)[nH]2)cc1 (stereo not drawn) [Example 25, N-(2-pyridinylmethyl)-N′-(4-Phenyl-1H-imidazol-2-ylmethyl)-N′-(5,6,7,8-tetrahydro-8-quinolinyl)-1,4-benzenedimethanamine] | > 20% |
| < 20 µg/mL | < 20 µg/mL | c1ccc(CNCc2ccc(CN[C@H]3CCCC[C@H]3NCc3ccccn3)cc2)nc1 [Example 134, N-(2-pyridinylmethyl)-N′-[cis-2-[(N-pyridin-2-ylmethyl)amino]cyclohexyl]-1,4-benzenedimethanamine] | > 20% |
| < 20 µg/mL | < 20 µg/mL | Cc1cc2nc(CN(Cc3ccc(CNCc4ccccn4)cc3)C3CCCc4cccnc43)[nH]c2cc1C (stereo not drawn) [Example 2, N-(2-pyridinylmethyl)-N′-(5,6-dimethyl-1-H-benzimidazol-2-ylmethyl)-N′-(5,6,7,8-tetrahydro-8-quinolinyl)-1,4-benzenedimethanamine] | > 20% |
| < 20 µg/mL | < 20 µg/mL | c1ccc(CNCc2ccc(CN[C@H]3CCCC[C@@H]3NCc3ccccn3)cc2)nc1 (relative stereo) [Example 133, N-(2-pyridinylmethyl)-N′-[trans-2-[(pyridin-2-ylmethyl)amino]cyclohexyl]-1,4-benzenedimethanamine] | > 20% |
| < 20 µg/mL | < 20 µg/mL | FC(F)(F)c1ccc2nc(CN(Cc3ccc(CNCc4ccccn4)cc3)C3CCCc4cccnc43)[nH]c2c1 (stereo not drawn) [Example 1, N-(2-pyridinylmethyl)-N′-(5-trifluoromethyl-1-H-benzimidazol-2-ylmethyl)-N′-(5,6,7,8-tetrahydro-8-quinolinyl)-1,4-benzenedimethanamine] | > 20% |
| < 20 µg/mL | < 20 µg/mL | c1ccc(N[C@H]2CCCC[C@H]2NCc2ccc(CNCc3ccccn3)cc2)cc1 (relative stereo) [Example 132, N-(2-pyridinylmethyl)-N′-[cis-2-(N-phenylamino)cyclohexyl]-1,4-benzenedimethanamine] | > 20% |
